Measured values as given in ChEMBL document CHEMBL3994622, “Design and synthesis of new RAF kinase-inhibiting antiproliferative quinoline derivatives. Part 2: Diarylurea derivatives” (Eur J Med Chem, 2017).

Columns and labels:
Format in all cases: functional
MDA-MB-231 [1] = assay: Growth inhibition of human MDA-MB-231 cells assessed as cell growth at 30 uM incubated for 48 hrs by sulforhodamine B assay relative to control; conditions: MDA-MB-231, 48 h, read-out: Activity
SNB-19 [2] = assay: Growth inhibition of human SNB19 cells assessed as cell growth at 3 uM incubated for 48 hrs by sulforhodamine B assay relative to control; conditions: SNB-19, 48 h, read-out: Activity
HOP-62 [3] = assay: Growth inhibition of human HOP62 cells assessed as cell growth at 0.03 uM incubated for 48 hrs by sulforhodamine B assay relative to control; conditions: HOP-62, 48 h, read-out: Activity
IGROV-1 = assay: Growth inhibition of human IGROV1 cells assessed as cell growth at 3 uM incubated for 48 hrs by sulforhodamine B assay relative to control; conditions: IGROV-1, 48 h, read-out: Activity
SF-295 [4] = assay: Growth inhibition of human SF295 cells assessed as cell growth at 0.3 uM incubated for 48 hrs by sulforhodamine B assay relative to control; conditions: SF-295, 48 h, read-out: Activity
K562 [5] = assay: Growth inhibition of human K562 cells assessed as cell growth at 3 uM incubated for 48 hrs by sulforhodamine B assay relative to control; conditions: K562, 48 h, read-out: Activity
MOLT-4 = assay: Growth inhibition of human MOLT4 cells assessed as cell growth at 30 uM incubated for 48 hrs by sulforhodamine B assay relative to control; conditions: MOLT-4, 48 h, read-out: Activity
CCRF-CEM = assay: Growth inhibition of human CCRF-CEM cells assessed as cell growth at 30 uM incubated for 48 hrs by sulforhodamine B assay relative to control; conditions: read-out: Activity
ACHN [6] = assay: Growth inhibition of human ACHN cells assessed as cell growth at 0.03 uM incubated for 48 hrs by sulforhodamine B assay relative to control; conditions: read-out: Activity
NCI-H226 [7] = assay: Growth inhibition of human NCI-H226 cells assessed as cell growth at 0.03 uM incubated for 48 hrs by sulforhodamine B assay relative to control; conditions: NCI-H226, 48 h, read-out: Activity
K562 [8] = assay: Growth inhibition of human K562 cells assessed as cell growth at 0.003 uM incubated for 48 hrs by sulforhodamine B assay relative to control; conditions: K562, 48 h, read-out: Activity
DU-145 = assay: Growth inhibition of human DU145 cells assessed as cell growth at 0.003 uM incubated for 48 hrs by sulforhodamine B assay relative to control; conditions: DU-145, 48 h, read-out: Activity
SNB-19 [9] = assay: Growth inhibition of human SNB19 cells assessed as cell growth at 0.01 uM incubated for 48 hrs by sulforhodamine B assay relative to control; conditions: SNB-19, 48 h, read-out: Activity
SF-295 [10] = assay: Growth inhibition of human SF295 cells assessed as cell growth at 1 uM incubated for 48 hrs by sulforhodamine B assay relative to control; conditions: SF-295, 48 h, read-out: Activity
PC-3 [11] = assay: Growth inhibition of human PC3 cells assessed as cell growth at 10 uM incubated for 48 hrs by sulforhodamine B assay relative to control; conditions: PC-3, 48 h, read-out: Activity
HT-29 = assay: Growth inhibition of human HT-29 cells assessed as cell growth at 100 uM incubated for 48 hrs by sulforhodamine B assay relative to control; conditions: HT-29, 48 h, read-out: Activity
COLO 205 = assay: Growth inhibition of human COLO205 cells assessed as cell growth at 1 uM incubated for 48 hrs by sulforhodamine B assay relative to control; conditions: COLO 205, 48 h, read-out: Activity
MCF7 [12] = assay: Growth inhibition of human MCF7 cells assessed as cell growth at 100 uM incubated for 48 hrs by sulforhodamine B assay relative to control; conditions: MCF7, 48 h, read-out: Activity
K562 [13] = assay: Growth inhibition of human K562 cells assessed as cell growth at 10 uM incubated for 48 hrs by sulforhodamine B assay relative to control; conditions: K562, 48 h, read-out: Activity
NCI-H226 [14] = assay: Growth inhibition of human NCI-H226 cells assessed as cell growth at 0.01 uM incubated for 48 hrs by sulforhodamine B assay relative to control; conditions: NCI-H226, 48 h, read-out: Activity
M14 = assay: Growth inhibition of human M14 cells assessed as cell growth at 0.1 uM incubated for 48 hrs by sulforhodamine B assay relative to control; conditions: M14, 48 h, read-out: Activity
UACC-62 = assay: Growth inhibition of human UACC62 cells assessed as cell growth at 0.01 uM incubated for 48 hrs by sulforhodamine B assay relative to control; conditions: UACC-62, 48 h, read-out: Activity
ACHN [15] = assay: Growth inhibition of human ACHN cells assessed as cell growth at 0.01 uM incubated for 48 hrs by sulforhodamine B assay relative to control; conditions: read-out: Activity
BT-549 = assay: Growth inhibition of human BT549 cells assessed as cell growth at 0.01 uM incubated for 48 hrs by sulforhodamine B assay relative to control; conditions: BT-549, 48 h, read-out: Activity
SW-620 = assay: Growth inhibition of human SW620 cells assessed as cell growth at 10 uM incubated for 48 hrs by sulforhodamine B assay relative to control; conditions: SW-620, 48 h, read-out: Activity
MDA-MB-231 [16] = assay: Growth inhibition of human MDA-MB-231 cells assessed as cell growth at 0.1 uM incubated for 48 hrs by sulforhodamine B assay relative to control; conditions: MDA-MB-231, 48 h, read-out: Activity
K562 [17] = assay: Growth inhibition of human K562 cells assessed as cell growth at 0.1 uM incubated for 48 hrs by sulforhodamine B assay relative to control; conditions: K562, 48 h, read-out: Activity
RPMI-8226 = assay: Growth inhibition of human RPMI8226 cells assessed as cell growth at 0.1 uM incubated for 48 hrs by sulforhodamine B assay relative to control; conditions: RPMI-8226, 48 h, read-out: Activity
PC-3 [18] = assay: Growth inhibition of human PC3 cells assessed as cell growth at 1 uM incubated for 48 hrs by sulforhodamine B assay relative to control; conditions: PC-3, 48 h, read-out: Activity
SK-OV-3 = assay: Growth inhibition of human SKOV3 cells assessed as cell growth at 1 uM incubated for 48 hrs by sulforhodamine B assay relative to control; conditions: SK-OV-3, 48 h, read-out: Activity
MCF7 [19] = assay: Growth inhibition of human MCF7 cells assessed as cell growth at 0.01 uM incubated for 48 hrs by sulforhodamine B assay relative to control; conditions: MCF7, 48 h, read-out: Activity
OVCAR-4 = assay: Growth inhibition of human OVCAR4 cells assessed as cell growth at 100 uM incubated for 48 hrs by sulforhodamine B assay relative to control; conditions: OVCAR-4, 48 h, read-out: Activity
HOP-62 [20] = assay: Growth inhibition of human HOP62 cells assessed as cell growth at 0.1 uM incubated for 48 hrs by sulforhodamine B assay relative to control; conditions: HOP-62, 48 h, read-out: Activity
SF-268 = assay: Growth inhibition of human SF268 cells assessed as cell growth at 1 uM incubated for 48 hrs by sulforhodamine B assay relative to control; conditions: SF-268, 48 h, read-out: Activity
K562 [21] = assay: Growth inhibition of human K562 cells assessed as cell growth at 0.01 uM incubated for 48 hrs by sulforhodamine B assay relative to control; conditions: K562, 48 h, read-out: Activity

COc1cc2cc(Oc3ccc(NC(=O)Nc4ccc(Cl)c(C(F)(F)F)c4)cc3)c(C)nc2cc1OC
growth at 30 µM (MDA-MB-231 [1]): -74% | growth at 3 µM (SNB-19 [2]): 24% | growth at 0.03 µM (HOP-62 [3]): 106% | growth at 3 µM (IGROV-1): 39% | growth at 0.3 µM (SF-295 [4]): 93% | growth at 3 µM (K562 [5]): 12% | growth at 30 µM (MOLT-4): -36% | growth at 30 µM (CCRF-CEM): -38% | growth at 0.03 µM (ACHN [6]): 97% | growth at 0.03 µM (NCI-H226 [7]): 98% | growth at 0.003 µM (K562 [8]): 95% | growth at 0.003 µM (DU-145): 100%

COc1cc2cc(Oc3ccc(NC(=O)Nc4cc(C(F)(F)F)cc(C(F)(F)F)c4)cc3)c(C)nc2cc1OC
growth at 0.01 µM (SNB-19 [9]): 95% | growth at 1 µM (SF-295 [10]): 31% | growth at 10 µM (PC-3 [11]): -41% | growth at 100 µM (HT-29): -90% | growth at 1 µM (COLO 205): 92% | growth at 100 µM (MCF7 [12]): -73% | growth at 10 µM (K562 [13]): -47% | growth at 0.01 µM (NCI-H226 [14]): 103% | growth at 0.1 µM (M14): 97% | growth at 0.01 µM (UACC-62): 90% | growth at 0.01 µM (ACHN [15]): 94% | growth at 0.01 µM (BT-549): 91% | growth at 10 µM (SW-620): -26% | growth at 0.1 µM (MDA-MB-231 [16]): 98% | growth at 0.1 µM (K562 [17]): 108% | growth at 0.1 µM (RPMI-8226): 93% | growth at 1 µM (PC-3 [18]): 27% | growth at 1 µM (SK-OV-3): 88% | growth at 0.01 µM (MCF7 [19]): 85% | growth at 100 µM (OVCAR-4): -52% | growth at 0.1 µM (HOP-62 [20]): 94% | growth at 1 µM (SF-268): 79% | growth at 0.01 µM (K562 [21]): 110%

COc1cc2cc(Oc3ccc(NC(=O)Nc4ccc(Cl)c(Cl)c4)cc3)c(C)nc2cc1OC
growth at 0.01 µM (SNB-19 [9]): 94% | growth at 1 µM (SF-295 [10]): 80% | growth at 10 µM (PC-3 [11]): -28% | growth at 100 µM (HT-29): -100% | growth at 1 µM (COLO 205): 109% | growth at 100 µM (MCF7 [12]): -50% | growth at 10 µM (K562 [13]): 15% | growth at 0.01 µM (NCI-H226 [14]): 104% | growth at 0.1 µM (M14): 97% | growth at 0.01 µM (UACC-62): 94% | growth at 0.01 µM (ACHN [15]): 101% | growth at 0.01 µM (BT-549): 78% | growth at 10 µM (SW-620): 16% | growth at 0.1 µM (MDA-MB-231 [16]): 92% | growth at 0.1 µM (K562 [17]): 107% | growth at 0.1 µM (RPMI-8226): 101% | growth at 1 µM (PC-3 [18]): 67% | growth at 1 µM (SK-OV-3): 112% | growth at 0.01 µM (MCF7 [19]): 95% | growth at 100 µM (OVCAR-4): -85% | growth at 0.1 µM (HOP-62 [20]): 104% | growth at 1 µM (SF-268): 110% | growth at 0.01 µM (K562 [21]): 108%

Cc1nc2cc(O)c(O)cc2cc1Oc1ccc(NC(=O)Nc2ccc(Cl)c(Cl)c2)cc1
growth at 30 µM (MDA-MB-231 [1]): 6% | growth at 3 µM (SNB-19 [2]): 96% | growth at 0.03 µM (HOP-62 [3]): 105% | growth at 3 µM (IGROV-1): 95% | growth at 0.3 µM (SF-295 [4]): 89% | growth at 3 µM (K562 [5]): 76% | growth at 30 µM (MOLT-4): 2% | growth at 30 µM (CCRF-CEM): -16% | growth at 0.03 µM (ACHN [6]): 107% | growth at 0.03 µM (NCI-H226 [7]): 103% | growth at 0.003 µM (K562 [8]): 122% | growth at 0.003 µM (DU-145): 105%
